Data taken from PubChem BioAssay AID1845205 (Molecular Pharmacology Branch, DTP, NCI, 2023).

Tested on: MPNST multicellular tumor spheroids, viability % test/control
Experiment: Anticancer human tumor MPNST cell line growth inhibition;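 note: spheroids exposed to agents for seven days after three days of growth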;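 for viability, T/C: luminescence signal used as surrogate for viable cell amount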
Settings: for IC50: curve of first compound; for viability, T/C: stronger effect = lower value
In short: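 Complex tumor spheroids combined malignant cells with endothelial cells and mesenchymal stem cells. DNA-damaging drugs and DNA repair inhibitors were tested alone and in combination, at half-log dilutions down from clinical Cmax (top 10 microM if Cmax unknown), 0.25% DMSO final.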

[1] = second compound 30 pM, first compound 0.0316 µM
[2] = second compound 30 pM, first compound 0.1 µM
[3] = second compound 30 pM, first compound 0.316 µM
[4] = second compound 30 pM, first compound 1 µM
[5] = second compound 30 pM, first compound 3.16 µM
[6] = second compound 30 pM, first compound 10 µM
[7] = second compound 94.9 pM, first compound 0.0316 µM
[8] = second compound 94.9 pM, first compound 0.1 µM
[9] = second compound 94.9 pM, first compound 0.316 µM
[10] = second compound 94.9 pM, first compound 1 µM
[11] = second compound 94.9 pM, first compound 3.16 µM
[12] = second compound 94.9 pM, first compound 10 µM
[13] = second compound 0.0003 µM, first compound 0.0316 µM
[14] = second compound 0.0003 µM, first compound 0.1 µM
[15] = second compound 0.0003 µM, first compound 0.316 µM
[16] = second compound 0.0003 µM, first compound 1 µM
[17] = second compound 0.0003 µM, first compound 3.16 µM
[18] = second compound 0.0003 µM, first compound 10 µM
[19] = second compound 0.000949 µM, first compound 0.0316 µM
[20] = second compound 0.000949 µM, first compound 0.1 µM
[21] = second compound 0.000949 µM, first compound 0.316 µM
[22] = second compound 0.000949 µM, first compound 1 µM
[23] = second compound 0.000949 µM, first compound 3.16 µM
[24] = second compound 0.000949 µM, first compound 10 µM
[25] = second compound 0.003 µM, first compound 0.0316 µM
[26] = second compound 0.003 µM, first compound 0.1 µM
[27] = second compound 0.003 µM, first compound 0.316 µM
[28] = second compound 0.003 µM, first compound 1 µM
[29] = second compound 0.003 µM, first compound 3.16 µM
[30] = second compound 0.003 µM, first compound 10 µM

CC1COCCN1c1cc(-c2ccnn2C)c2ccnc(-c3ccn[nH]3)c2n1 (stereo not given) + COc1cc2c(cc1O)CCNC21CSC2c3c(OC(C)=O)c(C)c4c(c3C(COC1=O)N1C(O)C3Cc5cc(C)c(OC)c(O)c5C(C21)N3C)OCO4
IC50 (second compound 30 pM): < 31.6 nM
IC50 (second compound 94.9 pM): < 31.6 nM
IC50 (second compound 0.0003 µM): < 31.6 nM
IC50 (second compound 0.000949 µM): < 31.6 nM
IC50 (second compound 0.003 µM): < 31.6 nM
viability, T/C [1]: 47.3%
viability, T/C [2]: 48.1%
viability, T/C [3]: 42%
viability, T/C [4]: 39.2%
viability, T/C [5]: 31.1%
viability, T/C [6]: 25.6%
viability, T/C [7]: 47.8%
viability, T/C [8]: 44.8%
viability, T/C [9]: 39.4%
viability, T/C [10]: 33%
viability, T/C [11]: 29.2%
viability, T/C [12]: 25.6%
viability, T/C [13]: 47.8%
viability, T/C [14]: 44.9%
viability, T/C [15]: 38.7%
viability, T/C [16]: 36.9%
viability, T/C [17]: 28.8%
viability, T/C [18]: 24.6%
viability, T/C [19]: 45.4%
viability, T/C [20]: 41.2%
viability, T/C [21]: 39.4%
viability, T/C [22]: 31.3%
viability, T/C [23]: 24.2%
viability, T/C [24]: 20.7%
viability, T/C [25]: 12.2%
viability, T/C [26]: 11.1%
viability, T/C [27]: 10.5%
viability, T/C [28]: 6.65%
viability, T/C [29]: 5.18%
viability, T/C [30]: 4.99%

COc1cc(C)[nH]c(=O)c1CN1CCc2c(Cl)cc(C(OC)C3COC3)c(Cl)c2C1=O (stereo not given) + COc1cc2c(cc1O)CCNC21CSC2c3c(OC(C)=O)c(C)c4c(c3C(COC1=O)N1C(O)C3Cc5cc(C)c(OC)c(O)c5C(C21)N3C)OCO4
IC50 (second compound 30 pM): > 10000 nM
IC50 (second compound 94.9 pM): > 10000 nM
IC50 (second compound 0.0003 µM): > 10000 nM
IC50 (second compound 0.000949 µM): < 31.6 nM
IC50 (second compound 0.003 µM): < 31.6 nM
viability, T/C [1]: 73.7%
viability, T/C [2]: 77.4%
viability, T/C [3]: 74.5%
viability, T/C [4]: 84.8%
viability, T/C [5]: 81%
viability, T/C [6]: 90.3%
viability, T/C [7]: 94.7%
viability, T/C [8]: 78.4%
viability, T/C [9]: 86.4%
viability, T/C [10]: 77.5%
viability, T/C [11]: 83.2%
viability, T/C [12]: 69.9%
viability, T/C [13]: 79%
viability, T/C [14]: 68.8%
viability, T/C [15]: 91.7%
viability, T/C [16]: 82.5%
viability, T/C [17]: 69.8%
viability, T/C [18]: 60.6%
viability, T/C [19]: 47.6%
viability, T/C [20]: 46%
viability, T/C [21]: 45.3%
viability, T/C [22]: 42.8%
viability, T/C [23]: 42.6%
viability, T/C [24]: 45.4%
viability, T/C [25]: 9.08%
viability, T/C [26]: 11.7%
viability, T/C [27]: 12.8%
viability, T/C [28]: 5.61%
viability, T/C [29]: 7.75%
viability, T/C [30]: 6.1%

Cc1cc(C)c(CNC(=O)c2cc(-c3ccc(CN4CCOCC4)cc3)cc3c2cnn3C2CCCC2)c(=O)[nH]1 + COc1cc2c(cc1O)CCNC21CSC2c3c(OC(C)=O)c(C)c4c(c3C(COC1=O)N1C(O)C3Cc5cc(C)c(OC)c(O)c5C(C21)N3C)OCO4
IC50 (second compound 30 pM): > 10000 nM
IC50 (second compound 94.9 pM): > 10000 nM
IC50 (second compound 0.0003 µM): > 10000 nM
IC50 (second compound 0.000949 µM): < 31.6 nM
IC50 (second compound 0.003 µM): < 31.6 nM
viability, T/C [1]: 106%
viability, T/C [2]: 93.7%
viability, T/C [3]: 85.2%
viability, T/C [4]: 101%
viability, T/C [5]: 113%
viability, T/C [6]: 99.3%
viability, T/C [7]: 104%
viability, T/C [8]: 89.8%
viability, T/C [9]: 71%
viability, T/C [10]: 102%
viability, T/C [11]: 120%
viability, T/C [12]: 68.9%
viability, T/C [13]: 86%
viability, T/C [14]: 80.3%
viability, T/C [15]: 83.3%
viability, T/C [16]: 98%
viability, T/C [17]: 91.4%
viability, T/C [18]: 70.7%
viability, T/C [19]: 41.3%
viability, T/C [20]: 53.5%
viability, T/C [21]: 46%
viability, T/C [22]: 43.6%
viability, T/C [23]: 44.3%
viability, T/C [24]: 41.6%
viability, T/C [25]: 13.1%
viability, T/C [26]: 12.2%
viability, T/C [27]: 12.1%
viability, T/C [28]: 13.5%
viability, T/C [29]: 12.6%
viability, T/C [30]: 9.87%

Cc1sc2c(c1C)C(c1ccc(Cl)cc1)=NC(CC(=O)Nc1ccc(O)cc1)c1nnc(C)n1-2 (stereo not given) + COc1cc2c(cc1O)CCNC21CSC2c3c(OC(C)=O)c(C)c4c(c3C(COC1=O)N1C(O)C3Cc5cc(C)c(OC)c(O)c5C(C21)N3C)OCO4
IC50 (second compound 30 pM): 219 nM
IC50 (second compound 94.9 pM): 155 nM
IC50 (second compound 0.0003 µM): 58.4 nM
IC50 (second compound 0.000949 µM): < 9.49 nM
IC50 (second compound 0.003 µM): < 9.49 nM
viability, T/C (second compound 30 pM, first compound 0.00949 µM): 86.9%
viability, T/C (second compound 30 pM, first compound 0.03 µM): 71%
viability, T/C (second compound 30 pM, first compound 0.0949 µM): 85.7%
viability, T/C (second compound 30 pM, first compound 0.3 µM): 38.2%
viability, T/C (second compound 30 pM, first compound 0.949 µM): 26.3%
viability, T/C (second compound 30 pM, first compound 3 µM): 24%
viability, T/C (second compound 94.9 pM, first compound 0.00949 µM): 62.5%
viability, T/C (second compound 94.9 pM, first compound 0.03 µM): 70.3%
viability, T/C (second compound 94.9 pM, first compound 0.0949 µM): 56.6%
viability, T/C (second compound 94.9 pM, first compound 0.3 µM): 39.3%
viability, T/C (second compound 94.9 pM, first compound 0.949 µM): 27.9%
viability, T/C (second compound 94.9 pM, first compound 3 µM): 23.9%
viability, T/C (second compound 0.0003 µM, first compound 0.00949 µM): 59.6%
viability, T/C (second compound 0.0003 µM, first compound 0.03 µM): 53.3%
viability, T/C (second compound 0.0003 µM, first compound 0.0949 µM): 47.5%
viability, T/C (second compound 0.0003 µM, first compound 0.3 µM): 36.3%
viability, T/C (second compound 0.0003 µM, first compound 0.949 µM): 26.6%
viability, T/C (second compound 0.0003 µM, first compound 3 µM): 22.4%
viability, T/C (second compound 0.000949 µM, first compound 0.00949 µM): 31%
viability, T/C (second compound 0.000949 µM, first compound 0.03 µM): 29.7%
viability, T/C (second compound 0.000949 µM, first compound 0.0949 µM): 27.4%
viability, T/C (second compound 0.000949 µM, first compound 0.3 µM): 21.6%
viability, T/C (second compound 0.000949 µM, first compound 0.949 µM): 12.7%
viability, T/C (second compound 0.000949 µM, first compound 3 µM): 14.8%
viability, T/C (second compound 0.003 µM, first compound 0.00949 µM): 6.19%
viability, T/C (second compound 0.003 µM, first compound 0.03 µM): 4.21%
viability, T/C (second compound 0.003 µM, first compound 0.0949 µM): 4.96%
viability, T/C (second compound 0.003 µM, first compound 0.3 µM): 1.41%
viability, T/C (second compound 0.003 µM, first compound 0.949 µM): 2.26%
viability, T/C (second compound 0.003 µM, first compound 3 µM): 1.94%

[2H]c1nc(C)nc([2H])c1-c1cc(NC[C@@H](C)c2cccc3c(C(=O)NC)ccnc23)ncn1 + COc1cc2c(cc1O)CCNC21CSC2c3c(OC(C)=O)c(C)c4c(c3C(COC1=O)N1C(O)C3Cc5cc(C)c(OC)c(O)c5C(C21)N3C)OCO4
IC50 (second compound 30 pM): > 10000 nM
IC50 (second compound 94.9 pM): > 10000 nM
IC50 (second compound 0.0003 µM): > 10000 nM
IC50 (second compound 0.000949 µM): < 31.6 nM
IC50 (second compound 0.003 µM): < 31.6 nM
viability, T/C [1]: 83.5%
viability, T/C [2]: 71.4%
viability, T/C [3]: 73.3%
viability, T/C [4]: 97.6%
viability, T/C [5]: 72.7%
viability, T/C [6]: 88.1%
viability, T/C [7]: 94.4%
viability, T/C [8]: 83%
viability, T/C [9]: 81.6%
viability, T/C [10]: 103%
viability, T/C [11]: 99.9%
viability, T/C [12]: 78.3%
viability, T/C [13]: 78%
viability, T/C [14]: 75.8%
viability, T/C [15]: 72.5%
viability, T/C [16]: 95.7%
viability, T/C [17]: 75.8%
viability, T/C [18]: 87%
viability, T/C [19]: 48.4%
viability, T/C [20]: 40.6%
viability, T/C [21]: 42.7%
viability, T/C [22]: 43.1%
viability, T/C [23]: 42.3%
viability, T/C [24]: 42.9%
viability, T/C [25]: 9.53%
viability, T/C [26]: 12.7%
viability, T/C [27]: 8.26%
viability, T/C [28]: 12.5%
viability, T/C [29]: 9.06%
viability, T/C [30]: 8.35%
